Reference: publication PMC4265395 (Malaria Journal, 2014)
Where two headings read alike, the source gives them in different places. Marks after values point to notes of the source that are not given here.

Columns and labels:
[1] = system: CQ-R P. falciparum parasites (W2 clone); test: anti-HRPII test, P. falciparum CQ-R W2 clone in culture; format: cell-based, Plasmodium falciparum; details: for SI (MLD50/IC50) W2 (CQ-R): MLD50 HepG2 / IC50 W2; for IC50: Plasmodium falciparum
Experimental: (§1) Before tests with the molecules were performed, ring stage parasites were synchronized using sorbitol and the parasitaemia and haematocrit were adjusted; 180 μL/well was added to 96-well microtiter plates (Corning, Santa Clara, CA, USA) containing the diluted compounds tested in triplicate. Drug activity was evaluated in relation to control cultures with no drugs and was measured using the anti-histidine-rich protein II (HRPII) test as described. CQ was used in each test as a control, and two to four experiments were performed for each parasite strain.
(§2) The cultures were added to plates containing the diluted drugs, followed by incubation for 24 h under standard culture conditions. The contents of six wells with no drugs were harvested in each test plate, pooled in microtubes, and frozen for later use to measure the background parasite growth as described. […] Phosphate-buffered saline (PBS) containing 0.05% Tween and 4% bovine serum albumin was used for plate blocking (3 h at room temperature) to avoid nonspecific antibody binding. After 1 h at room temperature, the plate was washed, and 100 μL/well of a secondary antibody solution (MPFG-55P ICLLAB®, USA) was added, followed by incubation with 3,3′,5,5′-tetramethylbenzidine (TMB) chromogen (KPL, Gaithersburg, MD, USA) in the dark. […] The anti-P. falciparum drug activity was evaluated by comparing the parasite growth in the drug-free control cultures, considered 100% growth, with that in the drug test cultures.

[2] = system: CQ-S P. falciparum parasites (3D7 strain); test: anti-HRPII test, P. falciparum CQ-S 3D7 strain in culture; format: cell-based, Plasmodium falciparum; details: for SI (MLD50/IC50) 3D7 (CQ-S): MLD50 HepG2 / IC50 3D7; for IC50: Plasmodium falciparum; for Activity class against CQ-S parasites (3D7): in vitro, class by IC50
Experimental: as §1, §2

[3] = system: HepG2 cells; format: cell-based; details: human, 24 h
Experimental: A human hepatoma cell line (HepG2), originally received from the University of Lisbon as a kind gift, was cultured as described. […] When confluent, the cell monolayer was trypsinized, washed with culture medium supplemented with 10% FCS, counted, diluted (5 × 10^3 cells/well), placed in flat-bottom 96-well plates (Corning, Santa Clara, CA, USA), and incubated for 18 h at 37°C to allow cell adhesion. […] After 3 h, the supernatant was discarded, 100 μL of dimethyl sulphoxide (DMSO) was added per well, and the optical density was measured (SpectraMax340PC384, Molecular Devices) at 570 nm (test) and 630 nm (background). Cell viability was expressed as the percentage of the absorbance compared to the absorbance of the untreated cells and subtracted from the appropriate background measurement.

[4] = system: P. berghei NK65 CQ-resistant strain; format: in vivo, P. berghei in Swiss mice; details: for Activity class against CQ-resistant P. berghei in mice: 25 mg/kg
Experimental: (§3) The protocol for animal use was approved by the Ethics Committee for Animal Use (CEUA LW-23/13) of the Oswaldo Cruz Foundation (Fiocruz). Only Swiss adult female mice (20 ± 2 g weight) were used; they were raised at the animal facilities at FIOCRUZ-Minas.
A P. berghei NK65 CQ-resistant strain maintained at -70°C, selected by increasing doses of CQ, maintained in mice under constant drug pressure (CQ 150 mg/kg) and stored at -70°C was also defrosted and used to inoculate mice. […] The mice were inoculated with 10^7 parasitized RBCs using blood parasites from a donor with parasites resistant to 150 mg/kg of CQ. Groups of five mice each were separated 24 h after the parasite inoculation, then treated orally with the test CQAn at doses of 25 or 50 mg/kg for three consecutive days. Two control groups were used in each experiment; one received CQ at 150 mg/kg and the other was infected but treated with vehicle only (no drugs). The inhibition of parasitaemia was evaluated as described for the mice inoculated with the CQ-sensitive parasites.

[5] = system: P. berghei NK65 blood parasites (CQ-sensitive); parameters: method as in de Souza et al. [19]; details: 25 mg/kg, adapted from earlier paper, ref de Souza et al. [19], cited from earlier work
[6] = system: P. berghei NK65 blood parasites (CQ-sensitive); test: Suppressive test in mice, CQ-sensitive P. berghei; format: in vivo, P. berghei in Swiss mice; details: for Inhibition of P. berghei parasitaemia, day 5 / Inhibition of P. berghei parasitaemia, day 7: 50 mg/kg dose; for Inhibition of P. berghei parasitaemia, day 5: day 5 after infection; for Inhibition of P. berghei parasitaemia, day 7: day 7 after infection; for Percentage reduction of parasitaemia, CQ-Sensitive, Day 5 / Percentage reduction of parasitaemia, CQ-Sensitive, Day 7: 25 mg/kg oral, four consecutive days, vs non-treated mice; for Percentage reduction of parasitaemia, CQ-Sensitive, Day 5: day 5 after inoculation; for Percentage reduction of parasitaemia, CQ-Sensitive, Day 7: day 7 after inoculation; for Mice surviving the infection at least 30 days after the end of treatment: P. berghei-infected mice, groups of five
Experimental: as §3
The suppressive test was performed as described using the P. berghei NK65 blood parasites, with some modifications. Briefly, the blood parasites were maintained through weekly blood passages in mice. For the experiments, groups of 20–30 mice were inoculated with 1 × 10^5 infected erythrocytes. Approximately three hours later, they were randomly distributed into groups of five to six mice per cage, which were treated daily by gavage for four consecutive days. All the compounds were freshly diluted in 3% DMSO (Sigma-Aldrich) in RPMI medium and were administered orally at doses of 25 mg/kg or 50 mg/kg. The control mice received the drug vehicle. On days 5 and 7 after parasite inoculation, blood was taken from the tail of each mouse and used to prepare thin smears, which were methanol-fixed, Giemsa-stained and examined microscopically to determine parasitaemia.

[7] = system: β-haematin formation; test: Inhibition of β-haematin formation assay (lipid catalyst); format: biochemical
Experimental: The assay was performed using a lipid as a catalyst to promote crystallization. Briefly, drug stock solutions were prepared in DMSO and were used at a final concentration of up to 30 mM. A haem stock (10 mM) was made in DMSO and was diluted to 50 μM with 100 mM sodium acetate (pH 4.8). […] The plates were incubated at 37°C for 2 h to allow crystallization, followed by the addition of 100 μl of 200 mM sodium bicarbonate (pH 9.1) to solubilize any remaining monomeric haem. After incubation for 30 min at room temperature, the amount of solubilized monomeric haem was determined by measuring the absorbance at 405 nm. Finally, 20 μl of 1 M sodium hydroxide was added to the plates to dissolve any crystals that had been formed, and the absorbance was read at 405 nm to determine the total amount of haem present in each well. The inhibition of haem crystallization was determined as a function of the amount of monomeric haem that was not crystallized divided by the total amount of haem present in the assay mixture. The results are expressed as IC50 values based on the percentage inhibition of β-haematin formation by the CQAn.

[8] = W2, anti-HRPII method, average ± SD of two to four experiments, read-out: Anti-P. falciparum activity (IC50) W2 (CQ-R)
[9] = 3D7, anti-HRPII method, average ± SD of two to four experiments, read-out: Anti-P. falciparum activity (IC50) 3D7 (CQ-S)
[10] = 25 mg/kg (footnote b; head says 50 mg/kg)
[11] = 50 mg/kg oral, three consecutive days
[12] = experiment 1, read-out: Inhibitory concentration of β-haematin formation (IC50), Exp 1
[13] = experiment 2, read-out: Inhibitory concentration of β-haematin formation (IC50), Exp 2
[14] = experiment 3, read-out: Inhibitory concentration of β-haematin formation (IC50), Exp 3

## C#CCNCCCNc1ccnc2cc(Cl)ccc12 [CQAn28]
[1]
  SI (MLD50/IC50) W2 (CQ-R): 2125
[1]; [8]
  IC50: 0.71 ± 0.03 µM
[2]
  SI (MLD50/IC50) 3D7 (CQ-S): 101
  Activity class against CQ-S parasites (3D7): inactive
[2]; [9]
  IC50: 14.9 ± 3.58 µM
[3]
  Cytotoxicity MLD50 HepG2 cells: 1508.56 ± 344.50 µM
[4]
  Activity class against CQ-resistant P. berghei in mice: inactive
[4]; [10]
  Percentage reduction of parasitaemia, CQ-Resistant, Day 5: 0^b %
[5]
  Percentage reduction of parasitaemia, CQ-Sensitive, Day 5: 94^a %
  Percentage reduction of parasitaemia, CQ-Sensitive, Day 7: 24^a %

## C#CCNCCCCNc1ccnc2cc(Cl)ccc12 [CQAn33]
[1]
  SI (MLD50/IC50) W2 (CQ-R): 7645
[1]; [8]
  IC50: 0.02 ± 0.001 µM
[1]; relative to CQ, P. falciparum in vitro
  IC50 compared with that of CQ: more than 10 fold
[2]
  SI (MLD50/IC50) 3D7 (CQ-S): 131
  Activity class against CQ-S parasites (3D7): partially active (between 1–5 μM as partially active)
[2]; [9]
  IC50: 1.17 ± 0.1 µM
[3]
  Cytotoxicity MLD50 HepG2 cells: 152.89 ± 12.86 µM
[6]
  Inhibition of P. berghei parasitaemia, day 5: 100%
  Inhibition of P. berghei parasitaemia, day 7: 100%
[4]; [11]
  Percentage reduction of parasitaemia, CQ-Resistant, Day 5: 53%
  Percentage reduction of parasitaemia, CQ-Resistant, Day 7: 52%
[7]; [12]
  IC50: 4700 µM
[7]; [13]
  IC50: 3000 µM
[7]; [14]
  IC50: 5600 µM
[7]; relative to CQ
  β-haematin formation IC50 compared with that of CQ: similar
[5]
  Percentage reduction of parasitaemia, CQ-Sensitive, Day 5: 73^a %
  Percentage reduction of parasitaemia, CQ-Sensitive, Day 7: 57^a %

## C#CCNCCNc1ccnc2cc(Cl)ccc12 [CQAn34]
[1]
  SI (MLD50/IC50) W2 (CQ-R): 4101
[1]; [8]
  IC50: 0.23 ± 0.15 µM
[2]
  SI (MLD50/IC50) 3D7 (CQ-S): 3144
  Activity class against CQ-S parasites (3D7): active
[2]; [9]
  IC50: 0.3 ± 0.01 µM
[3]
  Cytotoxicity MLD50 HepG2 cells: 943.29 ± 73.15 µM
[6]
  Percentage reduction of parasitaemia, CQ-Sensitive, Day 5: 99%
  Percentage reduction of parasitaemia, CQ-Sensitive, Day 7: 81%
[4]
  Activity class against CQ-resistant P. berghei in mice: inactive
[4]; [10]
  Percentage reduction of parasitaemia, CQ-Resistant, Day 5: 0^b %

## C#CCN(CC#C)CCNc1ccnc2cc(Cl)ccc12 [CQAn37]
[1]
  SI (MLD50/IC50) W2 (CQ-R): 24275
[1]; [8]
  IC50: 0.07 ± 0.03 µM
[2]
  SI (MLD50/IC50) 3D7 (CQ-S): 2981
  Activity class against CQ-S parasites (3D7): active
[2]; [9]
  IC50: 0.57 ± 0.24 µM
[3]
  Cytotoxicity MLD50 HepG2 cells: 1699.24 ± 10.07 µM
[6]
  Percentage reduction of parasitaemia, CQ-Sensitive, Day 5: 100%
  Percentage reduction of parasitaemia, CQ-Sensitive, Day 7: 93%
  Inhibition of P. berghei parasitaemia, day 5: 100%
  Inhibition of P. berghei parasitaemia, day 7: 100%
  Mice surviving the infection at least 30 days after the end of treatment: Two of the five
[4]; [11]
  Percentage reduction of parasitaemia, CQ-Resistant, Day 5: 47%
  Percentage reduction of parasitaemia, CQ-Resistant, Day 7: 33%
[7]; [12]
  IC50: 2700 µM
[7]; [13]
  IC50: 10200 µM
[7]; [14]
  IC50: 7500 µM

## C#CCN(CC#C)CCCNc1ccnc2cc(Cl)ccc12 [CQAn39]
[1]
  SI (MLD50/IC50) W2 (CQ-R): 5011
[1]; [8]
  IC50: 0.64 ± 0.29 µM
[2]
  SI (MLD50/IC50) 3D7 (CQ-S): 1342
  Activity class against CQ-S parasites (3D7): partially active (between 1–5 μM as partially active)
[2]; [9]
  IC50: 2.39 ± 0.11 µM
[3]
  Cytotoxicity MLD50 HepG2 cells: ≥3207.08 µM
[6]
  Percentage reduction of parasitaemia, CQ-Sensitive, Day 5: 95%
  Percentage reduction of parasitaemia, CQ-Sensitive, Day 7: 92%
[4]; [11]
  Percentage reduction of parasitaemia, CQ-Resistant, Day 5: 62%
  Percentage reduction of parasitaemia, CQ-Resistant, Day 7: 30%

## C#CCN(CC#C)CCCCNc1ccnc2cc(Cl)ccc12 [CQAn45]
[1]; [8]
  IC50: 0.77 ± 0.21 µM
[2]
  SI (MLD50/IC50) 3D7 (CQ-S): 868
  Activity class against CQ-S parasites (3D7): partially active (between 1–5 μM as partially active)
[2]; [9]
  IC50: 1.17 µM
[3]
  Cytotoxicity MLD50 HepG2 cells: 1015.84 ± 42.97 µM
[6]
  Percentage reduction of parasitaemia, CQ-Sensitive, Day 5: 88%
  Percentage reduction of parasitaemia, CQ-Sensitive, Day 7: 50%
[4]; [11]
  Percentage reduction of parasitaemia, CQ-Resistant, Day 5: 63%
  Percentage reduction of parasitaemia, CQ-Resistant, Day 7: 51%

## CCN(CC)CCCC(C)Nc1ccnc2cc(Cl)ccc12 (stereo not shown) [Chloroquine, reference compound]
[1]; W2, read-out: Anti-P. falciparum activity (IC50) W2 (CQ-R)
  IC50: 0.38 ± 0.03 µM
[2]; 3D7, read-out: Anti-P. falciparum activity (IC50) 3D7 (CQ-S)
  IC50: 0.081 ± 0.019 µM
[6]
  Percentage reduction of parasitaemia, CQ-Sensitive, Day 5: 100%
  Percentage reduction of parasitaemia, CQ-Sensitive, Day 7: 97%
  Inhibition of P. berghei parasitaemia, day 5: 100%
  Inhibition of P. berghei parasitaemia, day 7: 100%
  Mice surviving the infection at least 30 days after the end of treatment: all
[7]; [12]
  IC50: 600 µM
[7]; [13]
  IC50: 2000 µM
[7]; [14]
  IC50: 5000 µM
